{"source": "patent US20240360139A1", "about": "“BLOOD BRAIN BARRIER PENETRATING SELECTIVE INHIBITORS OF ROCK2 PROTEIN KINASES AND USES THEREOF” (GENOSCO Inc., priority 2023, published 2024)", "key": {"[1]": {"target": "T1, Recombinant ROCK2 (amino acids 5-554) (Homo sapiens, UniProt O75116)", "T1 construct": "ROCK2 (amino acids 5-554)", "T1 sequence (O75116 5-554)": "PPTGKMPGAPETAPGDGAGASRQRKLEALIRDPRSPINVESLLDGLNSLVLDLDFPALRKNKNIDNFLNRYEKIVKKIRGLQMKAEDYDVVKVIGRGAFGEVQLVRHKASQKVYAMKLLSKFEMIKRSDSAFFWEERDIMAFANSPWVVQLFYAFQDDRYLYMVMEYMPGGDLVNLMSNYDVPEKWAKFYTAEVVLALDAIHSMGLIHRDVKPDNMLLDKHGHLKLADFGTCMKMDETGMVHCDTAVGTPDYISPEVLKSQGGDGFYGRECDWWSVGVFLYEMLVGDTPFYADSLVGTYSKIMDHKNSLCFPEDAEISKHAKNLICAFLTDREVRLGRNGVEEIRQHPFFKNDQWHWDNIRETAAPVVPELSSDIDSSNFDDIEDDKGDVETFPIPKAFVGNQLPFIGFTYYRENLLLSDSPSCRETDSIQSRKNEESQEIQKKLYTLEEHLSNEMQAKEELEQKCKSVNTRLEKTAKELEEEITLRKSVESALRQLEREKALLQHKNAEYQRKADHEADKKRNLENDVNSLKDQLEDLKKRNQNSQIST", "test": "ROCK inhibition assay, LANCE Ultra TR-FRET (ROCK2)", "type": "biochemical", "settings": "1 mM of ATP"}, "[2]": {"test": "Blood-brain barrier penetration, brain-to-plasma ratio in mouse", "type": "in vivo", "settings": "CD-1 mouse, IV 1 mg/kg, n=3", "protocol": "(§1) The concentrations of compounds of (1) in blood and brain were measured from plasma and brain samples taken 0.25 and 2 hours after intravenous (IV) administration of the compounds of (1) at 1 mg/kg in CD-1 mouse and Sprague-Dawley rat (n=3). After euthanizing the mouse and rat, blood samples from cardiac puncture and brain tissue were collected. Plasma or brain homogenate was vortexed for 1 min. with internal standard in Methanol/Acetonitrile (1:1, v/v), and centrifuged at 4000-4500 rpm for 15 min. at room temperature to precipitate proteins. Subsequently, the supernatant was introduced into the LC/MS/MS system. An AB Sciex API 5500 mass spectrometer system (Sciex, USA) was used for quantitative analysis. The concentrations compounds of (1) in plasma and brain sample were determined using the standard calibration curve and brain-to-plasma concentration ratio was calculated."}, "[3]": {"target": "T2, Recombinant ROCK1 (amino acids 1-477) (Homo sapiens, UniProt Q13464)", "T2 construct": "Recombinant ROCK1 (amino acids 1-477)", "T2 sequence (Q13464 1-477)": "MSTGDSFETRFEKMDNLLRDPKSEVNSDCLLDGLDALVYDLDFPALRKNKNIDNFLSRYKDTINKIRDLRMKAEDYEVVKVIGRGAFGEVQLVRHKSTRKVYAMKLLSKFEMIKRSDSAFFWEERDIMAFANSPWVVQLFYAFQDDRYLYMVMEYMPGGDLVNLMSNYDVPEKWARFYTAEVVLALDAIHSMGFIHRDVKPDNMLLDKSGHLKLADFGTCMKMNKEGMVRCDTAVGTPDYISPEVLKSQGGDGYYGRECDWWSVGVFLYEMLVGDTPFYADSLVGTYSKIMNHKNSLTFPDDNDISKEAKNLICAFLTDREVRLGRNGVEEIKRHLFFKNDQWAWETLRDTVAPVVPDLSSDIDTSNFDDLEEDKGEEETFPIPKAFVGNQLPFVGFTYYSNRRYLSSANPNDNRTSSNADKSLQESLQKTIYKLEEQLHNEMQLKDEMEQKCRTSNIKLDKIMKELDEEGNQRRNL", "test": "ROCK inhibition assay, LANCE Ultra TR-FRET (ROCK1)", "type": "biochemical", "settings": "1 mM of ATP"}, "[4]": {"test": "Blood-brain barrier penetration, brain-to-plasma ratio in rat", "type": "in vivo", "settings": "Sprague-Dawley rat, IV 1 mg/kg, n=3", "protocol": "as §1"}}}
{"smiles": "CN1CC[C@@H]1Cn1cc(C(=O)C2COc3ccc(Cl)cc3C2)c2ccc(-c3cn[nH]c3Cl)cc21", "note": "(stereo partly shown) [Compound 1-55]", "values": [{"measurement": "IC50", "setting": "[1]", "result": "< 0.02", "unit": "µM"}, {"measurement": "Kp at 0.25 h", "setting": "[2]", "result": 0.67}, {"measurement": "Kp at 2 h", "setting": "[2]", "result": 0.8}, {"measurement": "IC50", "setting": "[3]", "result": "> 0.501", "unit": "µM"}, {"measurement": "Kp at 0.25 h", "setting": "[4]", "result": 0.4}, {"measurement": "Kp at 2 h", "setting": "[4]", "result": 0.59}]}
{"smiles": "CCN(CC)CCn1cc(C(=O)C2COc3ccc(OC)cc3C2)c2ccc(-c3cn[nH]c3Cl)cc21", "note": "(stereo not shown) [Compound 3-17]", "values": [{"measurement": "IC50", "setting": "[1]", "result": "0.021 to 0.2", "unit": "µM"}, {"measurement": "Kp at 0.25 h", "setting": "[2]", "result": 0.73}, {"measurement": "Kp at 2 h", "setting": "[2]", "result": 0.92}, {"measurement": "IC50", "setting": "[3]", "result": "> 0.501", "unit": "µM"}, {"measurement": "Kp at 0.25 h", "setting": "[4]", "result": 1.05}, {"measurement": "Kp at 2 h", "setting": "[4]", "result": 0.98}]}
{"smiles": "CNCCn1cc(C(=O)C2COc3ccc(OC)cc3C2)c2ccc(-c3cn[nH]c3F)cc21", "note": "(stereo not shown) [Compound 3-24]", "values": [{"measurement": "IC50", "setting": "[1]", "result": "0.021 to 0.2", "unit": "µM"}, {"measurement": "Kp at 0.25 h", "setting": "[2]", "result": 0.96}, {"measurement": "Kp at 2 h", "setting": "[2]", "result": 0.54}, {"measurement": "IC50", "setting": "[3]", "result": "> 0.501", "unit": "µM"}, {"measurement": "Kp at 0.25 h", "setting": "[4]", "result": 1.37}, {"measurement": "Kp at 2 h", "setting": "[4]", "result": 1.38}]}
{"smiles": "CN1CC[C@H]1Cn1nc(C(=O)C2COc3ccc(F)cc3C2)c2ccc(-c3c[nH]nc3F)cc21", "note": "(stereo partly shown) [Compound 5-56]", "values": [{"measurement": "IC50", "setting": "[1]", "result": "0.021 to 0.2", "unit": "µM"}, {"measurement": "Kp at 0.25 h", "setting": "[2]", "result": 7.32}, {"measurement": "Kp at 2 h", "setting": "[2]", "result": 10.2}, {"measurement": "IC50", "setting": "[3]", "result": "> 0.501", "unit": "µM"}, {"measurement": "Kp at 0.25 h", "setting": "[4]", "result": 12.4}, {"measurement": "Kp at 2 h", "setting": "[4]", "result": 20.2}]}
{"smiles": "COc1ccc2c(c1)CC(C(=O)c1nn(CCN(C)C)c3cc(-c4c[nH]nc4OC)ccc13)CCO2", "note": "(stereo not shown) [Compound 5-64]", "values": [{"measurement": "IC50", "setting": "[1]", "result": "> 0.501", "unit": "µM"}, {"measurement": "IC50", "setting": "[3]", "result": "> 0.501", "unit": "µM"}]}
{"smiles": "COc1ccc2c(c1)CC(C(=O)c1nn(CCN(C)C)c3cc(-c4c[nH]nc4Cl)ccc13)CCO2", "note": "(stereo not shown) [Compound 5-65]", "values": [{"measurement": "IC50", "setting": "[1]", "result": "> 0.501", "unit": "µM"}, {"measurement": "IC50", "setting": "[3]", "result": "> 0.501", "unit": "µM"}]}
